Structures can show the parent of a compound that is named as a salt. Where only a bound is given, the exact number is not on record here.

The compound `CCCc1nc2c(N)nc3ccccc3c2n1CC1(C(N)=O)CCC1` [Example 65, 1-[(4-Amino-2-propyl-1H-imidazo[4,5-c]quinolin-1-yl)methyl]cyclobutanecarboxamide] registered a melting point of 234 to 237 °C.

`COCCc1nc2c(N)nc3ccccc3c2n1CCCCCC(=O)N1CCOCC1` [Example 12, 2-(2-Methoxyethyl)-1-(6-morpholin-4-yl-6-oxohexyl)-1H-imidazo[4,5-c]quinolin-4-amine] gave a melting point of 131 to 132 °C.

`COCCc1nc2c(N)nc3ccccc3c2n1CCCCC(=O)N1CCOCC1` [Example 36, 2-(2-Methoxyethyl)-1-(5-morpholin-4-yl-5-oxopentyl)-1H-imidazo[4,5-c]quinolin-4-amine] had a melting point of 128 to 129 °C.

For `CCc1nc2c(N)nc(C)c(C)c2n1CCCC(=O)N1CCOCC1` [Example 43, 2-Ethyl-6,7-dimethyl-1-(4-morpholin-4-yl-4-oxobutyl)-1H-imidazo[4,5-c]pyridin-4-amine], the melting point lay within 209 to 210 °C.

Regarding `CCCNC(=O)CCn1cnc2c(N)nc3ccccc3c21` [Example 21, 3-(4-Amino-1H-imidazo[4,5-c]quinolin-1-yl)-N-propylpropanamide], the melting point lay within 212 to 214 °C.

`CCCc1nc2c(N)nc3ccccc3c2n1CC(C)(C)C(=O)N1CCOCC1` [Example 27, 1-(2,2-Dimethyl-3-morpholin-4-yl-3-oxopropyl)-2-propyl-1H-imidazo[4,5-c]quinolin-4-amine] registered a melting point of 212 to 214 °C.

In turn, `CCCCc1nc2c(N)nc3ccccc3c2n1CCCCC(N)=O` [Example 52, 5-(4-Amino-2-butyl-1H-imidazo[4,5-c]quinolin-1-yl)pentanamide] returned a melting point of 219 to 221 °C.

The compound `CCCCc1nc2c(N)nc3ccccc3c2n1CCCCC(=O)N1CCOCC1` [Example 46, 2-Butyl-1-(5-morpholin-4-yl-5-oxopentyl)-1H-imidazo[4,5-c]quinolin-4-amine] yielded a melting point of 141 to 143 °C.

For `CCCc1nc2c(N)nc3cccnc3c2n1CCCCCC(=O)N1CCOCC1` [Example 53, 1-(6-Morpholin-4-yl-6-oxohexyl)-2-propyl-1H-imidazo[4,5-c][1,5]naphthyridin-4-amine], the melting point fell in the range of 148 to 150 °C.

Compound `CCCc1nc2c(N)nc3ccccc3c2n1CCC(N)=O` (as salt: hydrochloride) [Example 18, 3-(4-Amino-2-propyl-1H-imidazo[4,5-c]quinolin-1-yl)propanamide hydrochloride] registered a melting point of 242 to 243 °C.

`CNC(=O)CCn1cnc2c(N)nc3ccccc3c21` [Example 20, 3-(4-Amino-1H-imidazo[4,5-c]quinolin-1-yl)-N-methylpropanamide] yielded a melting point of over 260 °C.

Compound `CCCc1nc2c(N)nc3cccnc3c2n1CCCC(=O)N1CCOCC1` [Example 37, 1-(4-Morpholin-4-yl-4-oxobutyl)-2-propyl-1H-imidazo[4,5-c][1,5]naphthyridin-4-amine] had a melting point of 196 to 197 °C.

As for `CCCc1nc2c(N)nc3cccnc3c2n1CCCCCC(N)=O` [Example 54, 6-(4-Amino-2-propyl-1H-imidazo[4,5-c][1,5]naphthyridin-1-yl)hexanamide], the melting point fell in the range of 216.5 to 217.5 °C.

`CCCNC(=O)CCCCCn1cnc2c(N)nc3ccccc3c21` [Example 10, 6-(4-Amino-1H-imidazo[4,5-c]quinolin-1-yl)-N-propylhexanamide] showed a melting point of 128 to 130 °C.

Take `CCOCc1nc2c(N)nc(C)c(C)c2n1CCCC(=O)N1CCOCC1` [Example 45, 2-(Ethoxymethyl)-6,7-dimethyl-1-(4-morpholin-4-yl-4-oxobutyl)-1H-imidazo[4,5-c]pyridin-4-amine]: the melting point was 156 to 158 °C.

In turn, `CCc1nc2c(N)nc3cccnc3c2n1CCCCCC(N)=O` [Example 56, 6-(4-Amino-2-ethyl-1H-imidazo[4,5-c][1,5]naphthyridin-1-yl)hexanamide] returned a melting point of 220 to 221 °C.

In turn, `CCCc1nc2c(N)nc3ccccc3c2n1CCC(=O)N(C)C` [Example 51, 3-(4-Amino-2-propyl-1H-imidazo[4,5-c]quinolin-1-yl)-N,N-dimethylpropanamide] registered a melting point of 207 to 209 °C.

`COCCc1nc2c(N)nc3ccccc3c2n1CCC(=O)N1CCOCC1` [Example 19, 2-(2-Methoxyethyl)-1-(3-morpholin-4-yl-3-oxopropyl)-1H-imidazo[4,5-c]quinolin-4-amine] displayed a melting point of 125 to 126 °C.

Consider `CCCc1nc2c(N)nc3ccccc3c2n1CCCCCC(=O)NC` [Example 8, 6-(4-Amino-2-propyl-1H-imidazo[4,5-c]quinolin-1-yl)-N-methylhexanamide], for which the melting point fell in the range of 158 to 159 °C.

On to `CCOCc1nc2c(N)nc3ccccc3c2n1CC1(C(N)=O)CCCCC1` [Example 67, 1-{[4-Amino-2-(ethoxymethyl)-1H-imidazo[4,5-c]quinolin-1-yl]methyl}cyclohexanecarboxamide], for which the melting point was 221 to 223 °C.

`CCCc1nc2c(N)nc(C)c(C)c2n1CCCC(N)=O` [Example 40, 4-(4-Amino-6,7-dimethyl-2-propyl-1H-imidazo[4,5-c]pyridin-1-yl)butanamide] registered a melting point of 226 to 228 °C.

Turning to `Cc1nc2c(N)nc3ccccc3c2n1CCC(N)=O` [Example 31, 3-(4-Amino-2-methyl-1H-imidazo[4,5-c]quinolin-1-yl)propanamide], the melting point was in the range of 237 to 239 °C.

In turn, `CCCc1nc2c(N)nc3ccccc3c2n1CCCCCC(N)=O` [Example 9, 6-(4-Amino-2-propyl-1H-imidazo[4,5-c]quinolin-1-yl)hexanamide] came in with a melting point of 210 to 211 °C.

Consider `Cc1nc2c(N)nc3ccccc3c2n1CCC(=O)N1CCOCC1` [Example 22, 2-Methyl-1-(3-morpholin-4-yl-3-oxopropyl)-1H-imidazo[4,5-c]quinolin-4-amine], for which the melting point lay in the range of 166 to 169 °C.

In turn, `CCOCc1nc2c(N)nc3ccccc3c2n1CCCCC(=O)N1CCOCC1` [Example 48, 2-(Ethoxymethyl)-1-(5-morpholin-4-yl-5-oxopentyl)-1H-imidazo[4,5-c]quinolin-4-amine] displayed a melting point of 128 to 129 °C.

Turning to `CCCc1nc2c(N)nc3ccccc3c2n1CCC(=O)NC` [Example 17, 3-(4-Amino-2-propyl-1H-imidazo[4,5-c]quinolin-1-yl)-N-methylpropanamide], the melting point is 177 to 178 °C.

For `CCOCc1nc2c(N)nc3ccccc3c2n1CCCCCC(=O)N1CCOCC1` [Example 13, 2-(Ethoxymethyl)-1-(6-morpholin-4-yl-6-oxohexyl)-1H-imidazo[4,5-c]quinolin-4-amine], the melting point fell in the range of 160 to 162 °C.

Turning to `Cc1nc2c(N)nc3ccccc3c2n1CC(C)(C)C(N)=O` [Example 61, 3-(4-Amino-2-methyl-1H-imidazo[4,5-c]quinolin-1-yl)-2,2-dimethylpropanamide], the melting point lay within 284 to 287 °C.

As to `CCOCc1nc2c(N)nc3ccccc3c2n1CCC(=O)N1CCOCC1` [Example 23, 2-(Ethoxymethyl)-1-(3-morpholin-4-yl-3-oxopropyl)-1H-imidazo[4,5-c]quinolin-4-amine], the melting point lay in the range of 187 to 189 °C.

As to `CCOCc1nc2c(N)nc3cccnc3c2n1CCCCCC(=O)N1CCOCC1` [Example 57, 2-(Ethoxymethyl)-1-(6-morpholin-4-yl-6-oxohexyl)-1H-imidazo[4,5-c][1,5]naphthyridin-4-amine], the melting point was 168 to 170 °C.

The compound `CC(C)(Cn1c(CO)nc2c(N)nc3ccccc3c21)C(N)=O` [Example 68, 3-[4-Amino-2-(hydroxymethyl)-1H-imidazo[4,5-c]quinolin-1-yl)-2,2-dimethylpropanamide] yielded a melting point of 201 to 203 °C.

Compound `CCOCc1nc2c(N)nc3ccccc3c2n1CCC(N)=O` [Example 24, 3-[4-Amino-2-(ethoxymethyl)-1H-imidazo[4,5-c]quinolin-1-yl]propanamide] gave a melting point of over 250 °C.

As to `CCCc1nc2c(N)nc3ccccc3c2n1CCCC(=O)N1CCOCC1` [Example 1, 1-(4-Morpholin-4-yl-4-oxobutyl)-2-propyl-1H-imidazo[4,5-c]quinolin-4-amine], the melting point fell in the range of 200 to 202 °C.

In turn, `CCCNC(=O)CCCCCn1c(CCC)nc2c(N)nc3ccccc3c21` [Example 7, 6-(4-Amino-2-propyl-1H-imidazo[4,5-c]quinolin-1-yl)-N-propylhexanamide] returned a melting point of 139 to 141 °C.

Take `CCCc1nc2c(N)nc3ccccc3c2n1CC(N)=O` [Example 59, 2-(4-Amino-2-propyl-1H-imidazo[4,5-c]quinolin-1-yl)acetamide]: the melting point was over 300 °C.

On to `CCCNC(=O)CCn1c(C)nc2c(N)nc3ccccc3c21` [Example 32, 3-(4-Amino-2-methyl-1H-imidazo[4,5-c]quinolin-1-yl)-N-propylpropanamide], for which the melting point lay within 188 to 189 °C.

`CCCc1nc2c(N)nc3ccccc3c2n1CCCCC(=O)N1CCOCC1` [Example 34, 1-(5-Morpholin-4-yl-5-oxopentyl)-2-propyl-1H-imidazo[4,5-c]quinolin-4-amine] showed a melting point of 178 to 179 °C.

On to `CCc1nc2c(N)nc3ccccc3c2n1CC1(C(N)=O)CCC1` [Example 66, 1-[(4-Amino-2-ethyl-1H-imidazo[4,5-c]quinolin-1-yl)methyl]cyclobutanecarboxamide], for which the melting point is 227 to 230 °C.

`CCOCc1nc2c(N)nc3ccccc3c2n1CCCC(=O)N1CCOCC1` [Example 5, 2-(Ethoxymethyl)-1-(4-morpholin-4-yl-4-oxobutyl)-1H-imidazo[4,5-c]quinolin-4-amine]: the melting point lay within 201 to 203 °C.

`CCCNC(=O)CCn1c(CCC)nc2c(N)nc3ccccc3c21` [Example 15, 3-(4-Amino-2-propyl-1H-imidazo[4,5-c]quinolin-1-yl)-N-propylpropanamide] came in with a melting point of 157 to 158 °C.

For the compound `Nc1nc2ccccc2c2c1ncn2CCCCCC(=O)N1CCOCC1` [Example 11, 1-(6-Morpholin-4-yl-6-oxohexyl)-1H-imidazo[4,5-c]quinolin-4-amine], the melting point was in the range of 166 to 168 °C.

The values are drawn from patent publication US8697873B2, “Amide substituted imidazopyridines, imidazoquinolines, and imidazonaphthyridines” (3M Innovative Properties Company, priority 2004, dated 2014).
